Measured values published in patent US6703418B2, “Appetite stimulation and induction of weight gain in patients suffering from symptomatic HIV infection” (Unimed Pharmaceuticals, Inc., priority 1991, dated 2004).

Tests used:
[1] = cancer chemotherapy patients; compared with prochlorperazine; cited from earlier work
[2] = Example II: prospective dose-ranging study of dronabinol in patients with symptomatic HIV infection, weight change and side effects; format: in vivo, human
Experimental: In a prospective, dose-ranging study, 23 patients with symptomatic HIV infection were treated with dronabinol at a dose of 2.5 mg twice daily to 5.0 mg three times daily. Of these, 13 completed approximately one month on therapy.
At a dose which appears optimal, seven of eight patients completed one month treatment. […] Most of those patients who did experience side effects found them tolerable. […] The median rate of weight loss prior to therapy was 1.62 kg/mo; on therapy, the median weight gain was 1.56 kg/mo. The median improvement in the rate of weight change was 3.06 kg/mo, or approximately 1.5 lbs/wk.

[3] = Example I: ten symptomatic HIV patients treated with delta-9-tetrahydrocannabinol as dronabinol, weight change; format: in vivo, human
Experimental: Soft gelatin capsules were filled with delta-9-tetrahydrocannabinol in sesame oil (dronabinol). Capsules were filled with 2.5 mg delta-9-tetrahydrocannabinol per capsule or 5 mg delta-9-tetrahydrocannabinol per capsule.
Ten symptomatic HIV patients were treated with delta-9-tetrahydrocannabinol. […] The infectious complications which they had represent the spectrum of those usually seen in a symptomatic HIV-infected population.
Most of the patients had received or were on antiviral therapy, primarily zidovudine (azidothymidine). Two had previously received and one was receiving megesterol acetate as well. Patients received delta-9-tetrahydrocannabinol as dronabinol (delta-9-tetrahydrocannabinol in sesame oil in soft gelatin capsules), usually at a dose of 2.5 mg, for one to five months. Treatment continued for most of the patients at the time of this analysis. The dose varied. The patients were instructed to take medication up to four times daily as needed; many took it somewhat less often.
Initially, patients were losing a median of 0.93 kg/mo. On therapy, they gained 0.54 kg/mo. The median difference on versus pre-therapy was 1.92 kg/mo.

[4] = advanced cancer patients on chemotherapy, versus those not receiving it; cited from earlier work
[5] = children and adolescents 6-19 years of age; cited from earlier work
[6] = cancer patients, open study; cited from earlier work
[7] = oral; cancer chemotherapy patients; crossover; cited from earlier work

CCCCCc1cc(O)c2c(c1)OC(C)(C)[C@@H]1CCC(C)=C[C@@H]21 [delta-9-tetrahydrocannabinol]
reported hunger [1]: reported feeling more hungry than patients on prochlorperazine
number of patients who gained weight ([2]; all doses, 2.5 mg twice daily to 5.0 mg three times daily, of 13 patients completing about one month on therapy): seven gained weight
side effects ([2]; dose which appears optimal): most patients did not experience side effects
median improvement in the rate of weight change ([2]; dose which appears optimal, converted from kg/mo): approximately 1.5 lbs/wk
number of patients who gained weight ([2]; dose which appears optimal, of seven patients completing one month): five of the seven patients gained weight
median improvement in the rate of weight change ([2]; dose which appears optimal, on therapy versus prior to therapy): 3.06 kg/mo
median weight gain on therapy ([2]; dose which appears optimal, pre-therapy median loss 1.62 kg/mo): 1.56 kg/mo
number of patients who gained weight ([3]; of ten symptomatic HIV patients): Seven patients gained weight
number of patients with a decrease in weight loss ([3]; of ten symptomatic HIV patients, besides those who gained weight): two others had a decrease in weight loss
median difference in rate of weight change, on versus pre-therapy ([3]; ten symptomatic HIV patients, usually 2.5 mg oral, one to five months): 1.92 kg/mo
median weight gain on therapy ([3]; ten symptomatic HIV patients, usually 2.5 mg oral, up to four times daily as needed, one to five months, pre-therapy median loss 0.93 kg/mo): 0.54 kg/mo
weight maintenance [4]: maintained their weight better
appetite stimulating effect [5]: Results suggestive of an appetite stimulating effect
appetite [6]: appetite increases
rate of weight loss [6]: lessening of the rate of weight loss
subjects reporting an increased food intake [7]: 50%
